According to patent US20180228811A1, “GDNF INDUCTION FOR THE TREATMENT OF RETINAL DISORDERS” (THE SCHEPENS EYE RESEARCH INSTITUTE, INC., priority 2014, published 2018):
Where “and” joins values, the source holds several entries; their conditions need not be identical. Identical values can stand only once. Entries after “also recorded” stand apart in the source; their conditions may differ.

Tests used:
photoreceptors = experiment: Photoreceptor rescue by Compound I suspension in rhodopsin knockout mice (H&E cell count); type: in vivo, mouse; conditions: rho-/- mice
Description: To study photoreceptor rescue by Compound I suspension (60 mg/ml), 2 ul of suspension (n=5) or Vehicle (n=5) were administered intravitreally to 4-week old rhodopsin knockout mice using a beveled glass needle, connected to a Hamilton syringe through polyethylene tubing. During the injection, corneal paracenthesis was performed to reduce intraocular pressure. 10 weeks after the injection, eyes were enucleated and fixed in Davidson solution for histological processing: paraffin embedding and sectioning. Six micron thick sections were cut in the area close to optic nerve head (ONH) and stained with hematoxylin-eosin (H&E) or processed for immunohistochemical analysis (IHC). H&E-stained sections were imaged (Olympus imaging system DP72) and total photoreceptor number was estimated based on the nuclei count in the outer nuclear layer (ONL). Cells were counted in each 100 um retina span starting from optic nerve head on three sections for each eye (five eyes per group). Total photoreceptor number per section was also calculated.

GDNF [1] = experiment: GDNF induction in mouse eyecups differentiated from induced pluripotent stem cells (ELISA); type: cell-based
Description: GDNF induction […] was assessed using three retinal-specific cell systems: ARPE19, as a model for human retinal pigment epithelium; human retinal progenitor cells (hRPC), as a substitute for human retinal neurons/glia; and mouse eyecups, differentiated from induced pluripotent stem cells. ARPE19 cells are described in Dunn et al., Exp. Eye Res. 62: 155-169, 1996. To study GDNF induction in a human retinal pigment epithelium cell line, ARPE19, thawed ARPE19 cells (passage 33, ATCC) were plated on fibronectin (Akron)-coated plates (Nunc) in stimulation medium at a density of 10 k cells/sq.cm. The flasks were incubated at standard conditions: 37° C., 5% CO2, 100% humidity. Cells were plated 24 hours prior to Compound I treatment and were grown in Ultraculture medium (Lonza), supplemented with 1×MEM NEAA (Gibco), 1× L-glutamine (Gibco), 1× Antibiotic/antimycotic (Gibco), 2 ng/ml bFGF (Peprotech), 1 ng/ml EGF (Peprotech). […]
To study GDNF induction in retina-like tissue structures, mouse eyecups were differentiated from wild-type mouse induced pluripotent stem cells according to the protocol described previously (Eiraku, M. & Sasai, Y., Nat Protoc 7, 69-79 (2012)). […] The results of dose-dependent GDNF induction were analyzed by ANOVA (p<0.05).

GDNF [2] = experiment: GDNF induction by Compound I aqueous solution in rhodopsin knockout mice; type: in vivo, mouse; conditions: 3 hours; for GDNF protein upregulation: vehicle 1.2 fold
Description: All animal procedures were performed under general (intraperitoneal ketamine/xylazine) and topical (proparacaine drops) anesthesia. Tropicamide was applied for pupil dilation. After injection, the eye was treated with antibiotic ointment (Bacitracin-Neomycin-Polymyxin). The same procedures were applied to control eyes.
To study GDNF induction by Compound I aqueous solution, 1 ul of 10 uM (n=5) or 100 uM (n=5) water-based Compound I or 1 ul of Vehicle (n=5) was administered intravitreally using beveled glass needle, connected to a Hamilton syringe through polyethylene tubing. During the injection, corneal paracenthesis was performed to reduce intraocular pressure. Compound I was injected into 4-week old wildtype (C57/Bl6, Jackson labs) and rhodopsin knockout (Humphries et al., Nat. Genet. 15, 216-219 (1997)).
Three hours after the injection animals were euthanized using CO2, then the death was confirmed by cervical dislocation. The treated and untreated eyes were enucleated and placed in 250 ul of chilled RNAlater buffer (Qiagen) and stored at 4° C. Later, eyes were excised and total neural retina with retinal pigment epithelium were collected into 400 ul of Lysis buffer (Qiagen RNeasy kit) with 5 mM beta-mercaptoethanol. Total RNA was isolated using RNeasy kit (Qiagen) and eluted with 100 ul of Ultrapure water (Life technologies). All flow through from RNA isolation (˜2.4 ml) was collected and mixed with 10 ml of ice-cold (−20° C.) acetone for protein precipitation. The protein was precipitated at −20° C. for 30 minutes, then pelleted at 3500 rpm for 20 min. Pellets were washed once with 100% ethanol, then reconstituted with 300 ul of RIPA buffer with 0.2 mM 4-benzenesulfonyl fluoride hydrochloride (Tocris). mRNA and protein expression were assessed by qPCR and Western Blot and normalized to GAPDH and βActin. The statistical analysis was performed using a T-test (p<0.05) with Bonferroni post-hoc test.

Structure (SMILES): COc1cc2c(cc1S(=O)(=O)c1ccc(OCc3ccc(Cl)cc3)cc1)CCN(C)CC2 [Compound I, 7-[4-(4-chloro-benzyloxy)-benzenesulfonyl]-8-methoxy-3-methyl-2,3,4,5-tetrahydro-1H-3-benzazepine]
- increase in photoreceptor cell number pan-retinally compared to uninjected and vehicle (photoreceptors; 2 ul of 60 mg/ml suspension intravitreally at 4 weeks of age, 10 weeks after injection): 2 fold and 2.1 fold
- total photoreceptor cells per section (photoreceptors; suspension, 10 weeks after injection, uninjected 516, vehicle 508): 1210 cells per section
- retinal pigment epithelium, inner nuclear and ganglion cell layers, histology (photoreceptors; suspension, 10 weeks after the treatment): no changes in the retinal pigment epithelium, inner nuclear or ganglion cell layers
- increase in photoreceptor cell number in the area close to the optic nerve head (ONH) (photoreceptors; suspension, 200 micron area): 1.5 fold
- outer nuclear layer (ONL), histology (photoreceptors; suspension, compared to vehicle-treated and untreated eyes): preserved; also recorded: significant increase in ONL thickness
- photoreceptors per 200 um close to the ONH (photoreceptors; suspension, non-treated 46, vehicle control 39): 63 photoreceptors per 200 um
- GDNF induction (GDNF [1]): More than 2 fold
- GDNF induction, result in words (GDNF [1]; 0 to 10 uM): Significant dose-dependent GDNF induction
- GDNF mRNA induction compared to vehicle-treated control (GDNF [2]; 10 uM solution intravitreally): 1.8 fold
- GDNF protein upregulation (GDNF [2]; 10 uM solution intravitreally): > 2 fold and 2.8 fold
- GDNF mRNA induction compared to vehicle-treated control (GDNF [2]; 100 uM solution intravitreally): 1.7 fold
- GDNF protein upregulation (GDNF [2]; 100 uM solution intravitreally): > 2 fold and 2.6 fold
